Measurements: the supplement of paper PMC11061612

Tests used:
Assay in all cases: Bliss excess, mean over the matrix (fraction); higher = more synergy
[1] = test system: A375 (Melanoma)
In short: (§1)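 Cell lines in DMEM/F12 or RPMI with 10% FBS were plated in 1536-well plates, held 24 hours at 37°C, 5% CO2, then given two-drug dose matrices for 72 hours (DMSO typically 0.2%). Viability was read by CellTiter-Glo 2.0 luminescence and scaled as inhibition from 0 (vehicle wells) to 1 (blank wells). Combination Emax is the second-highest inhibition in the matrix; Bliss excess is observed combination effect minus expected EA + EB − EA·EB, EA and EB being single-agent effects.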

[2] = test system: ATN-1 (T-Lymphoblastic Leukemia)
In short: as §1

[3] = test system: BC-1 (B-Cell Non-Hodgkin's Lymphoma)
In short: as §1

[4] = test system: Daudi (Burkitt's Lymphoma)
In short: as §1

[5] = test system: GCIY (Gastric Carcinoma)
In short: as §1

[6] = test system: HT-144 (Melanoma)
In short: as §1

[7] = test system: HT-3 (Cervical Carcinoma)
In short: as §1

[8] = test system: IGROV-1 (Ovarian Carcinoma)
In short: as §1

[9] = test system: JJN-3 (Plasma Cell Myeloma)
In short: as §1

[10] = test system: MDA-MB-175-VII (Breast Carcinoma)
In short: as §1

[11] = test system: NCI-H1048 (Small Cell Lung Carcinoma)
In short: as §1

[12] = test system: NCI-H2023 (Non-Small Cell Lung Carcinoma)
In short: as §1

[13] = test system: NCI-H2452 (Mesothelioma)
In short: as §1

[14] = test system: NCI-H835 (Other Solid Carcinomas)
In short: as §1

[15] = test system: NTERA-2-cl-D1 (Other Solid Carcinomas)
In short: as §1

[16] = test system: OCI-M1 (Acute Myeloid Leukemia)
In short: as §1

[17] = test system: RPMI-8402 (T-Lymphoblastic Leukemia)
In short: as §1

[18] = test system: SK-N-DZ (Neuroblastoma)
In short: as §1

[19] = test system: SNU-1 (Gastric Carcinoma)
In short: as §1

[20] = test system: TOV-21G (Ovarian Carcinoma)
In short: as §1

SMILES | Bliss excess [1] | Bliss excess [2] | Bliss excess [3] | Bliss excess [4] | Bliss excess [5] | Bliss excess [6] | Bliss excess [7] | Bliss excess [8] | Bliss excess [9] | Bliss excess [10] | Bliss excess [11] | Bliss excess [12] | Bliss excess [13] | Bliss excess [14] | Bliss excess [15] | Bliss excess [16] | Bliss excess [17] | Bliss excess [18] | Bliss excess [19] | Bliss excess [20]
COc1cc2ncnc(Nc3ccc(F)c(Cl)c3)c2cc1OCCCN1CCOCC1 [Gefitinib] + CC(C)n1c(=O)n(C)c2cnc3cc(F)c(-c4ccc(OCCCN5CCCCC5)nc4)cc3c21 [AZD1390] (first compound max 10 µM, 7x7, partner max 0.3 µM) | -0.0544 | -0.0377 | -0.0279 | -0.0688 | 0.0145 | -0.0682 | -0.0456 | -0.0824 | -0.0185 | -0.0191 | -0.0556 | -0.0463 | -0.108 | -0.0381 | -0.0643 | -0.065 | -0.0801 | -0.0375 | -0.0701 | -0.084
N#Cc1cnc(Nc2cc(NC[C@H]3CNCCO3)c(C(F)(F)F)cn2)cn1 [SRA737] + O=c1[nH]cc(F)c(=O)[nH]1 [5-Fluorouracil] (first compound max 10 µM, 7x7, partner max 20 µM) | -0.0149 |  | -0.001 |  | -0.0044 |  |  |  |  | -0.0189 |  | 0.0353 | 0.0571 | 0.0621 | -0.0757 |  | -0.0445 |  |  | 
Cc1cc2ncnn2cc1Nc1ncc2c(n1)n(C1CCOCC1)c(=O)n2C [AZD7648] + C=CCn1c(=O)c2cnc(Nc3ccc(N4CCN(C)CC4)cc3)nc2n1-c1cccc(C(C)(C)O)n1 [AZD1775] (first compound max 10 µM, partner max 1 µM) | 0.0217 | -0.0176 | 0.004 | -0.0101 | -0.028 | 0.0458 | 0.0055 | -0.0431 | -0.0726 | -0.0282 | -0.0505 | 0.027 | 0.0647 | 0.0229 | -0.0791 | -0.044 | -0.0213 | 0.0207 | -0.0572 | -0.0672
CN(CCO)CC[C@H](CSc1ccccc1)Nc1ccc(S(=O)(=O)NC(=O)c2ccc(N3CCC([C@@H](O)c4ccccc4-c4ccc(Cl)cc4)CC3)cc2)cc1S(=O)(=O)C(F)(F)F [AZD4320] + C1CN(CCC1(C(=O)N[C@@H](CCO)C2=CC=C(C=C2)Cl)N)C3=NC=NC4=C3C=CN4 [Capivasertib] (first compound max 1 µM, 7x7, partner max 3 µM) | -0.0414 | -0.0802 | -0.0342 | -0.0512 | 0.0298 | -0.0412 | -0.0593 | -0.0385 | -0.0265 | 0.0425 | 0.0513 | -0.103 | -0.0757 |  | 0.0075 | -0.0161 | 0.0394 | -0.0417 | -0.0441 | -0.0429
N#Cc1cnc(Nc2cc(NC[C@H]3CNCCO3)c(C(F)(F)F)cn2)cn1 [SRA737] + CCc1c2c(nc3ccc(O)cc13)-c1cc3c(c(=O)n1C2)COC(=O)[C@]3(O)CC [SN-38] (first compound max 10 µM, 7x7, partner max 0.3 µM) | -0.0288 |  | -0.0242 |  | -0.0331 |  |  |  |  | -0.0418 |  | -0.0813 | 0.0683 | -0.0262 | -0.0004 |  | -0.0209 |  |  | 
Cc1cc2ncnn2cc1Nc1ncc2c(n1)n(C1CCOCC1)c(=O)n2C [AZD7648] + C[C@@H]1COCCN1C2=NC(=NC(=C2)C3(CC3)[S@](=N)(=O)C)C4=C5C=CNC5=NC=C4 [AZD6738] (first compound max 10 µM, 7x7, partner max 10 µM) | 0.0301 | 0.0406 | -0.016 | 0.0285 | 0.0524 | 0.0349 | 0.0076 | -0.08 | -0.0051 | 0.0441 | 0.0425 | 0.0722 | 0.0084 | 0.0417 | 0.0533 | 0.0125 | 0.0216 | -0.018 | -0.013 | 0.002
Cc1cc2ncnn2cc1Nc1ncc2c(n1)n(C1CCOCC1)c(=O)n2C [AZD7648] + CN(C)CCCOc1ccc(-c2ccc3ncc4c(c3c2)n(C2CCOCC2)c(=O)n4C)cn1 [AZD0156] (first compound max 10 µM, 7x7, partner max 1 µM) | 0.0165 | 0.0185 | 0.0465 | 0.0327 | -0.0458 | 0.0013 | 0.0226 | -0.0328 | -0.0058 | -0.0453 | 0.0121 | -0.0192 | -0.0457 | 0.0086 | -0.0248 | 0.0385 | 0.0104 | 0.038 | 0.01 | -0.0047
